Data taken from US9314507B2, “Methods of treatment of heart failure with natriuretic peptides” (Capricor Therapeutics, INC., priority 2010, dated 2016).
Where a SMILES comes first, the peptide text is derived from it. Bridges are numbered along the chain shown (N, C = ends).

Tests used:
Type in all cases: in vivo, human
[1] = test system: patients with chronic heart failure; assay: Dosing study (fixed and weight-based dose)
Protocol: In a dosing study, CD-NP was administered to patients with chronic heart failure. The amount of CD-NP administered was either a set amount (in μg/hr) regardless of the patient's weight, or was varied based on the patient's weight.
In FIG. 10a, the steady state average (SS Avg) serum concentration of CD-NP in pg/mL is plotted against patient weight for patients who received low (18 μg/hr) and medium (24 μg/hr) doses of CD-NP.
The placebo group had no significant change in SBP over the course of the study. […] In one aspect, the SBP decrease for doses 24 μg/hr is insufficient to cause a risk of hypotension. […] The weight-based group received a dose that depended on the patients weight. Using PK data, for example the linear fit of data from FIG. 10a, the dose was adjusted to give a predicted serum concentration of 500 pg/mL.
As depicted in FIG. 12, the concentration of CD-NP in serum vs. time after initial dosing for patients on a low dose and a medium dose.

healthy subjects = assay: clinical
clinical = conditions: human, in vivo; read-out: terminal elimination half-life
[2] = test system: patients hospitalized with acute heart failure requiring hemodynamic monitoring; assay: Hemodynamic Monitoring Phase 2a clinical study (Hemo Study, NIL-CDNP-CT003)
Protocol: Another exemplary study using CD-NP was a multi-center, open-label Phase 2a clinical study of CD-NP in patients hospitalized with acute heart failure requiring hemodynamic monitoring (Hemo Study, or NIL-CDNP-CT003). This study considered the efficacy of 8 hours of intravenous administration of CD-NP on changes in cardiac output and pulmonary capillary wedge pressure (PCWP, or wedge pressure).
Stabilized acute heart failure patients requiring hemodynamic monitoring, and receiving standard-of-care heart failure medications (i.e., furosemide infusion), received an initial 8-hour CD-NP infusion followed by a 14-hour washout period, and then a further 8-hour CD-NP infusion. Hemodynamic measurements were collected for an additional 8 hours and safety measurements were collected for a further 2 days.
Patients were enrolled into one of two sequential cohorts (Cohort A and B) which could include up to 10 evaluable patients in each cohort. Cohort A received 8 hours of 3 ng/kg/min CD-NP, followed by a 14 hour wash-out period, and then 8 hours of 10 ng/kg/min CD-NP. Cohort B received 8 hours of 1 ng/kg/min CD-NP, followed by a 14 hour wash-out period, and then 8 hours of 20 ng/kg/min CD-NP.
The first 2 hours, (−2 to 0) represent time before administration of CD-NP. Hours 0 to 38 represent time during the CD-NP dosing regimen discussed above.

In the case of `CC[C@H](C)[C@@H]1NC(=O)[C@H](CCCNC(=N)N)NC(=O)[C@H](CC(=O)O)NC(=O)[C@H](CCCCN)NC(=O)[C@H](CC(C)C)NC(=O)CNC(=O)[C@H](Cc2ccccc2)NC(=O)[C@@H](NC(=O)CNC(=O)[C@H](CCCCN)NC(=O)[C@H](CO)NC(=O)[C@H](CC(C)C)NC(=O)CN)CSSC[C@@H](C(=O)N2CCC[C@H]2C(=O)N[C@@H](CO)C(=O)N[C@@H](CC(C)C)C(=O)N[C@@H](CCCNC(=N)N)C(=O)N[C@@H](CC(=O)O)C(=O)N2CCC[C@H]2C(=O)N[C@@H](CCCNC(=N)N)C(=O)N2CCC[C@H]2C(=O)N[C@@H](CC(N)=O)C(=O)N[C@@H](C)C(=O)N2CCC[C@H]2C(=O)N[C@@H](CO)C(=O)N[C@H](C(=O)N[C@@H](CO)C(=O)N[C@@H](C)C(=O)O)[C@@H](C)O)NC(=O)CNC(=O)[C@H](CC(C)C)NC(=O)CNC(=O)[C@H](CO)NC(=O)[C@H](CCSC)NC(=O)[C@H](CO)NC(=O)CNC1=O` [CD-NP, cenderitide] (H-GLSKGCFGLKDRIGSMSGLGCPSLRDPRPNAPSTSA-OH; disulfide 6-21; N-terminus and C-terminus assumed), the “area under the curve (AUC) vs patient weight” value ([1]; FIG. 10b) is reported as “decreases with increasing patient weight”, the “change in SBP” value ([1]; high dose 36 μg/hr (600 ng/min)) is reported as “decrease in SBP that could possibly cause hypotension” and the “steady state average (SS Avg) serum concentration vs patient weight” value ([1]; low (18 μg/hr) and medium (24 μg/hr) doses, FIG. 10a) is reported as “decreases with increasing patient weight”. For the same molecule, the “orthostatic hypotension immediately after the infusion” value (healthy subjects; 17.5 ng/kg/min, vs placebo arm) was “more events were observed in the CD-NP arm”, the “subjects with symptomatic hypotension in association with orthostatic challenge immediately post-infusion” value (healthy subjects; 25 ng/kg/min) was “two out of four” and the “symptomatic hypotension during CD-NP dosing” value (healthy subjects; during dosing) was “did not induce symptomatic hypotension”. For the same molecule, the “maximum tolerated dose (MTD)” value (healthy subjects; healthy subjects, 10, 17.5 and 25 ng/kg/min tested) was 17.5 ng/kg/min, the “time to steady state of natriuretic peptide” value (healthy subjects; infusion) was 1 to 2 h and the half-life (clinical) was 15 to 20 min. For the same molecule, the “SBP below 90 mmHg” value ([2]; 20 ng/kg/min, 8 h infusion, FIG. 4b) was “one patient had a transient dip in SBP below 90 mmHg” and the well tolerated dose ([2]; previous studies, co-administered with furosemide to stabilized heart failure patients) was “up to 20 ng/kg/min”.
